# From US7534806B2, “Method for treating neuropathic pain and associated syndromes” (Avigen, Inc., priority 2004, dated 2009)
# “Also recorded” adds a separate entry of the source.
# Legend:
# [1] = tested on: mechanical allodynia in rat chronic constriction injury (CCI) model; test: von Frey test of mechanical allodynia in rat chronic constriction injury (CCI) model of neuropathic pain; assay type: in vivo
# [2] = Dose selection study: rat tolerability to intraperitoneal ibudilast; assay type: in vivo
# Description: Dose Selection Study: Preliminary studies were designed to assess rat tolerability to single and multiple intraperitoneal administrations of ibudilast. […] These included extended head, increased respiratory rate, occasional circling behavior and vocalization, and lethargy.
# [3] = tested on: astrocyte activation (Glial Fibrillary Acidic Protein staining); test: GFAP immunohistochemistry of lumbar spinal cord from CCI rats (astrocyte activation); assay type: in vivo, rat; details: 7.5 mg/kg ip BID for 5 days
# Description: Study of Attenuation of Glial Cell Activation in Ibudilast-Treated CCI Rats: At the end of the 5-day study, animals (4/group) from the CCI vehicle control or CCI ibudilast group were euthanized and lumbar spinal cord tissue was isolated and stained for astrocyte activation with an antibody reactive against Glial Fibrillary Acidic Protein (GFAP) as described in […] and J A DeLeo, Brain Research (2002) 956:294-301. FIG. 6 depicts a typical staining profile from CCI vehicle-treated animals. Enlarged (activated) astrocytes, typically observed in subjects with neuropathic pain (CCI rats in this case), are visible in the CCI group.
# [4] = in vivo; details: rat
# Method: Pharmacokinetics. Plasma Ibudilast Concentrations Correlating with Efficacy: Dedicated pharmacokinetic studies in normal rats were performed with ibudilast dosing i.p. or p.o. in order to correlate drug plasma levels with changes in mechanical allodynia (i.e. neuropathic pain efficacy). Following dosing (time t=0), serial bleeding from n=3 rats/time point and 6 time points interspersed between 5 min and 6 hr was obtained, plasma was isolated, and ibudilast concentrations were determined by a HPLC and two-dimensional mass spectrometry (LC/MS/MS) method (described in Example 4) sensitive to ≦1 ng/ml. […] Moreover, pharmacokinetic-pharmacodynamic analyses involving PK parameters including Cmax, area under the curve (AUC), and elimination half-life (t1/2) indicated Cmax is an important parameter in establishing efficacy.
# (§1) Tissue Concentration Analysis: A solution of ibudilast (Haorui) at 0.5 mg/ml in DMSO was used as the working stock. A solution of ibudilast at 0.5 mg/ml in DMSO was prepared using the powdered ibudilast provided with the study samples and used as the working stock. Calibration standards in plasma were prepared by diluting each 0.5 mg/ml stock 1 in 100 into rat plasma to 5000 ng/ml (5 μl+495 μl), then diluting further, to 2.29 ng/ml, by 3-fold serial dilution with plasma. Standards 3, 5 and 7 were used as low, mid and high QC samples, respectively.
# (§2) Calibration standards, QC and plasma study samples were prepared for HPLC injection by precipitating 25 μl of plasma with 3× volumes (75 μl) of ice cold acetonitrile containing 50 ng/ml diphenhydramine and 100 ng/ml dextromethorphan as the internal standards. Tissue study samples were prepared for HPLC injection by adding 1 μl of water per mg of tissue plus 3× volumes (relative to water) of ice cold acetonitrile containing 50 ng/ml diphenhydramine and 100 ng/ml dextromethorphan as the internal standards, then homogenized with an electric homogenizer. Following centrifugation at 6100 g for 30 minutes, 40 μl of each supernatant was diluted with 200 μl of 0.2% formic acid in water and analyzed by the following LC/MS/MS conditions: • HPLC: Shimadzu VP System • Mobile Phase: 0.2% formic acid in water (A) and in methanol (B) • Column: 2×10 mm Peeke Scientific DuraGel G C18 guard cartridge • Injection Volume: 100 μl • Gradient: 5-95% B in 2 minutes after a 0.75 minute wash • Flow Rate: 400 μl/min • Mass Spectrometer: Applied Biosystems/MDS SCIEX API 3000 • Interface: TurboIonSpray (ESI) at 400° C. • Ionization Mode: Positive Ion • Q1/Q3 Ions: 231.2/161.2 for ibudilast Studies and Results
# [5] = tested on: mechanical allodynia in rat Chung model; test: von Frey test of mechanical allodynia in rat Chung model of neuropathic pain; assay type: in vivo
# Method: Test Agents: Haorui and Sigma ibudilast was formulated as described above. Ibudilast was administered at 10 mg/kg twice daily, (3.7 ml/kg of 2.7 mg/ml in 35% PEG/saline) i.p. each morning (typically 8 am) and pm (typically 3 pm). Animals: Pathogen-free adult male Wistar rats (150-200 g; Elevage Janvier) were used in all experiments. Rats were housed in temperature (23+/−3° C.) and light (12:12 light: dark; lights on at 0700 hr) controlled rooms with standard rodent chow and water available ad libitum. Behavioral testing was performed during the light cycle. Chung model: Rats were anesthetized under isoflurane (4-5% induction and 2-3% maintenance in 100% oxygen) and an incision at the L4-S2 levels was performed to expose the left L5 and L6 spinal nerves. A ligature was tied tightly around each nerve. The wound was then sutured. The rats received an injection of clamoxil and were allowed to recover. Sham controls were subjected to the same surgical procedure except that the nerves were not ligated. […] Multi-day Study for Neuropathic Pain Efficacy: A 3-day efficacy study was undertaken wherein the animals (n=3-4/group for shams and 5/group for Chung animals) were administered 10 mg/kg ibudilast or 35% PEG/saline vehicle twice daily and mechanical allodynia was monitored at various time intervals post-dosing. […] A pre-dose reading was acquired each day in order to assess durability of efficacy.
# [6] = tested on: mechanical allodynia in rat model of taxol-induced neuropathic pain; test: von Frey test of mechanical allodynia in rat model of taxol-induced neuropathic pain; assay type: in vivo
# Method: Test Agents: Ibudilast was formulated as described above. Ibudilast was administered at 7.5 mg/kg (2.7 ml/kg of 2.8 mg/ml in 35% PEG/saline i.p. each morning (typically 8 am) and pm (typically 3 pm). Animals: Pathogen-free adult male Sprague-Dawley rats (280-350 g; Harlan Labs) were used in all experiments. Rats were housed in temperature (23+/−3° C.) and light (12:12 light: dark; lights on at 0700 hr) controlled rooms with standard rodent chow and water available ad libitum. Behavioral testing was performed during the light cycle. Taxol Model: Neuropathic pain was induced by administration of 4 i.p. injections on alternate days (Day 0, 2, 4, and 6) of 1 mg/kg taxol (Paclitaxel®, cumulative dose 4 mg/kg). Neuropathic pain onset was maximal around day 19 post taxol administration (Day 0). Ibudilast or vehicle control treatment initiated at either day 19 (treatment paradigm) or day 12 (prevention paradigm). Allodynia results were determined prior to the morning administration of vehicle or ibudilast. Behavioral Measures von Frey Test: The von Frey test was performed within the sciatic or saphenous innervation area of the hindpaws as previously described above for the CCI model. All testing was conducted in the am prior to the morning dose of ibudilast for that day. Multi-day Study for Neuropathic Pain Efficacy: 7.5 mg/kg Ibudilast was administered twice daily for 7 days starting day 20 after the first taxol dose (Day 0). Mechanical allodynia was assessed prior to the first dose of ibudilast each day. Prevention of Taxol-Induced Neuropathy: A second study was performed identical in nature to the multi-day study described above except that ibudilast or vehicle control administrations were initiated on day 12 just as allodynia was becoming clearly evident.
# [7] = Rat ibudilast plasma PK and tissue distribution (plasma, muscle, brain, spinal cord); assay type: in vivo
# Method: Test Agents: Ibudilast was prepared in 15% ethanol/saline. Drug stability and concentration were validated by HPLC/MS/MS.
# Animals: Pathogen-free adult male Sprague-Dawley rats (280-350 g; Harlan Labs) were used in all experiments. Rats were housed in temperature (23+/−3° C.) and light (12:12 light: dark; lights on at 0700 hr) controlled rooms with standard rodent chow and water available ad libitum. Behavioral testing was performed during the light cycle.
# PK Analysis: Rats (n=3/group) were administered 5 mg/kg ibudilast, i.p. and plasma, muscle, brain, and spinal cord were harvested at 5, 15, 60, 180, and 420 min post administration.
# as §1
# as §2, with “Tissue study samples were prepared for HPLC injection by adding 1 μl of water per mg of tissue plus 3× volumes (relative to water) of ice cold acetonitrile containing 50 ng/ml diphenhydramine and 100 ng/ml dextromethorphan as the internal standards, then homogenized with an electric homogenizer.” left out
# [8] = humans, cited from earlier work
# [9] = tested on: activated microglia; details: dose-dependent; Mizuno et al. 2004; cited from earlier work
# [10] = administered systemically; Sugiyama et al. 1993; cited from earlier work
smiles,measurement,setting,value
"CC(C)C(=O)c1c(C(C)C)nn2ccccc12 [Ibudilast, 3-isobutyryl-2-isopropylpyrazolo[1,5-a]pyridine]",days of treatment after which attenuation became durable (pm dosing to next day's pre-am test),[1]; 21 mg/kg p.o. twice daily,2 days
same,earliest time of attenuation of allodynia after the first dose,[1]; 21 mg/kg p.o. twice daily,4 h
same,"attenuation of allodynia, oral twice daily","[1]; 21 mg/kg p.o. twice daily 2 days then 25.5 mg/kg 3 days, 35% PEG/saline",Attenuation of allodynia was observed
same,days of dosing to durable efficacy lasting overnight,[1]; 50 mg/kg oral gavage once daily,≤ 7 days
same,"magnitude of allodynia, oral once daily","[1]; 50 mg/kg oral gavage once daily, 10% HCO-60, 10% PEG400 in saline, following 2 days of dosing, shortly after morning dose",significantly attenuated the magnitude of allodynia
same,"magnitude of allodynia (50% withdrawal threshold), multi-day study","[1]; 2.5, 7.5 or 10 mg/kg i.p. twice daily, 1 week, significant at +2 hr post-administration",attenuated the magnitude of allodynia
same,time after treatment at which reversal of neuropathic pain was still evident,"[1]; doses >2.5 mg/kg i.p. bid, within two days of regimen",16 h
same,paw withdrawal thresholds in ibudilast sham animals,"[1]; sham-operated rats, single i.p. 10-15 mg/kg",no changes in paw withdrawal thresholds
same,time at which reduction in allodynia was apparent,[1]; single i.p. 10-15 mg/kg,1 h
same,time of maximum reduction in allodynia,[1]; single i.p. 10-15 mg/kg,2 h
same,time of return to baseline,[1]; single i.p. 10-15 mg/kg,16 h
same,acute reduction in allodynia relative to CCI vehicle animals,"[1]; single i.p. administration of 10-15 mg/kg, measured 1, 2, 4, 16 hr post-administration",showed a reduction in allodynia
same,duration of adverse behavioral effects,[2]; i.p. doses >20 mg/kg in 35% PEG/saline,up to 1 hr
same,adverse behavioral effects,"[2]; i.p. doses >20 mg/kg in 35% PEG/saline, volume </=5 ml/kg",produced adverse behavioral effects
same,tolerability,"[2]; rat, in vivo, ip, 15 mg/kg",generally well tolerated
same,glial cell activation as measured by GFAP staining,[3],Reduced glial cell activation
same,Cmax,[4],≥ 0.125 µg/mL
same,Cmax,"[4]; ip, 2.5 mg/kg",0.125 µg/mL
same,Cmax,"[4]; ip, 7.5 mg/kg",1.71 µg/mL
same,Cmax,"[4]; po, 21 mg/kg",0.325 µg/mL
same,Cmax,"[4]; po, 50 mg/kg",0.387 µg/mL
same,time after treatment at which reversal of neuropathic pain was still evident (pre-dose reading),"[5]; 10 mg/kg i.p. b.i.d., within two days of regimen",16 h
same,magnitude of allodynia (50% withdrawal threshold),"[5]; 10 mg/kg i.p. twice daily, 3 days",attenuated the magnitude of allodynia
same,prevention of taxol-induced neuropathy development,[6]; 7.5 mg/kg i.p. BID initiated on day 12,prevented the further neuropathy development
same,time to return to allodynic state after discontinuation,[6]; 7.5 mg/kg i.p. twice daily,≤ 1 days
same,"magnitude of allodynia, treatment of established taxol neuropathy","[6]; 7.5 mg/kg i.p. twice daily for 7 days, measured prior to morning dose",attenuated the magnitude of allodynia; also recorded: statistically significantly different from vehicle control
same,tissue distribution,[7]; 5 mg/kg i.p.,well distributed to peripheral (e.g. muscle) and central (e.g. brain and spinal cord) tissues
same,half-life,"[7]; male, Sprague-Dawley, rat, ip, 5 mg/kg i.p., plasma, muscle, brain, spinal cord, read-out: elimination half-life in all tissue compartments",1.67 to 2.32 h
same,Cmax,"[7]; male, Sprague-Dawley, rat, plasma and CNS tissues (brain, spinal cord), ip, ~5 mg/kg i.p., 15% ethanol/saline, read-out: maximal concentration (Cmax) in plasma and CNS tissues",~1 µg/mL
same,multi-dose steady state Cmax,"[8]; 10 mg BID or TID, Cai-Li et al. 2003",0.045 µg/mL
same,single dose Cmax,"[8]; 10 mg, Ketas Package Insert",0.025 µg/mL
same,"production of IL-10, NGF, GDNF and NT-4",[9],enhance
same,"production of nitric oxide (NO), reactive oxygen species, IL-1β, IL-6 and TNF",[9],suppress
same,blood-brain barrier crossing,[10],crosses the blood-brain barrier
CN1CC[C@]23c4c5ccc(O)c4O[C@H]2[C@@H](O)C=C[C@H]3[C@H]1C5 [morphine],"reversal of allodynia in comparison to vehicle control, combination study","[1]; 7.5 mg/kg ibudilast ip bid alone or with 1 mg/kg morphine s.c., several days",greater than that by ibudilast
